Experimental data: patent publication US20260232767A1, “INTERLEUKIN-23 RECEPTOR ANTAGONIST PEPTIDES FOR USE IN THE TREATMENT OF PSORIASIS” (Janssen Pharmaceutica NV, priority 2023, published 2026)
Read-outs that look alike come from different tables or passages of the source.

Assay: Plasma concentrations (PK), Example 1
Assay type: in vivo, human
Experimental: For QD dosing, peak concentration was defined as any PK sample taken between 0.25 to <6 hours after the last morning dose and trough concentration was at least 20 hours after the last morning dose. For BID dosing, peak concentration was defined as any PK sample taken between 0.25 to <4 hours after the last dose and trough concentration was at least 8 hours after the last dose.

## CC(=O)NCCCC[C@@H]1NC(=O)[C@H](Cc2c[nH]c3c(C)cccc23)NC(=O)[C@H]([C@@H](C)O)NC(=O)[C@H](CC(N)=O)NC(=O)[C@@H](NC(C)=O)C(C)(C)SSC(C)(C)[C@@H](C(=O)N[C@@H](Cc2ccc(OCCN)cc2)C(=O)N[C@@H](Cc2ccc3ccccc3c2)C(=O)NC2(C(=O)N[C@@H](CCC(=O)O)C(=O)N[C@@H](CC(N)=O)C(=O)N[C@@H](Cc3cccnc3)C(=O)N(C)CC(N)=O)CCOCC2)NC1=O [IL-23 receptor antagonist peptide, Ac-[Pen]*-N-T-[W(7-Me)]-[Lys(Ac)]-[Pen]*-Phe[4-(2-aminoethoxy)]-[2-Nal]-[THP]-E-N-[3-Pal]-Sarc-NH2 (*[Pen]-[Pen]* formdisulfidebond)]
25 mg BID, Week 2, Intermediate
  Number of subjects with plasma concentration below LLOQ: 0
25 mg BID, Week 2, Peak
  Number of subjects with plasma concentration below LLOQ: 0
25 mg BID, Week 2, Trough
  Number of subjects with plasma concentration below LLOQ: 1 (100.0%)
25 mg BID, Week 4, Intermediate
  Number of subjects with plasma concentration below LLOQ: 0
25 mg BID, Week 4, Peak
  Number of subjects with plasma concentration below LLOQ: 0
25 mg BID, Week 4, Trough
  Number of subjects with plasma concentration below LLOQ: 1 (100.0%)
25 mg BID, Week 8, Intermediate
  Number of subjects with plasma concentration below LLOQ: 0
25 mg BID, Week 8, Peak
  Number of subjects with plasma concentration below LLOQ: 1 (50.0%)
25 mg BID, Week 8, Trough
  Number of subjects with plasma concentration below LLOQ: 2 (100.0%)
25 mg BID, Week 12, Intermediate
  Number of subjects with plasma concentration below LLOQ: 0
25 mg BID, Week 12, Peak
  Number of subjects with plasma concentration below LLOQ: 0
25 mg BID, Week 12, Trough
  Number of subjects with plasma concentration below LLOQ: 2 (100.0%)
25 mg BID, Week 16, Intermediate
  Number of subjects with plasma concentration below LLOQ: 0
25 mg BID, Week 16, Peak
  Number of subjects with plasma concentration below LLOQ: 0
  Plasma concentration, Median: 0.796 ng/mL
25 mg BID, Week 16, Trough
  Number of subjects with plasma concentration below LLOQ: 1 (100.0%)
  Plasma concentration, Median: 0.134 ng/mL
25 mg QD, Week 1, Intermediate
  Number of subjects with plasma concentration below LLOQ: 0
25 mg QD, Week 1, Peak
  Number of subjects with plasma concentration below LLOQ: 0
25 mg QD, Week 1, Trough, LLOQ 0.02 ng/mL
  Number of subjects with plasma concentration below LLOQ: 3 (100.0%)
25 mg QD, Week 2, Intermediate
  Number of subjects with plasma concentration below LLOQ: 0
25 mg QD, Week 2, Peak
  Number of subjects with plasma concentration below LLOQ: 3 (100.0%)
25 mg QD, Week 2, Trough
  Number of subjects with plasma concentration below LLOQ: 0
25 mg QD, Week 4, Intermediate
  Number of subjects with plasma concentration below LLOQ: 0
25 mg QD, Week 4, Peak
  Number of subjects with plasma concentration below LLOQ: 0
25 mg QD, Week 4, Trough
  Number of subjects with plasma concentration below LLOQ: 3 (100.0%)
25 mg QD, Week 8, Intermediate
  Number of subjects with plasma concentration below LLOQ: 0
25 mg QD, Week 8, Peak
  Number of subjects with plasma concentration below LLOQ: 0)
25 mg QD, Week 8, Trough
  Number of subjects with plasma concentration below LLOQ: 2 (100.0%)
25 mg QD, Week 12, Intermediate
  Number of subjects with plasma concentration below LLOQ: 0
25 mg QD, Week 12, Peak
  Number of subjects with plasma concentration below LLOQ: 0
25 mg QD, Week 12, Trough
  Number of subjects with plasma concentration below LLOQ: 6
25 mg QD, Week 16, Intermediate
  Number of subjects with plasma concentration below LLOQ: 0
25 mg QD, Week 16, Peak
  Number of subjects with plasma concentration below LLOQ: 2
  Plasma concentration, Median: 0.295 ng/mL
25 mg QD, Week 16, Trough
  Number of subjects with plasma concentration below LLOQ: 2
  Plasma concentration, Median: 0.057 ng/mL
50 mg QD, Week 2, Intermediate
  Number of subjects with plasma concentration below LLOQ: 0
50 mg QD, Week 2, Peak
  Number of subjects with plasma concentration below LLOQ: 1 (100.0%)
50 mg QD, Week 2, Trough
  Number of subjects with plasma concentration below LLOQ: 0
50 mg QD, Week 12, Intermediate
  Number of subjects with plasma concentration below LLOQ: 0
50 mg QD, Week 12, Peak
  Number of subjects with plasma concentration below LLOQ: 0
50 mg QD, Week 12, Trough
  Number of subjects with plasma concentration below LLOQ: 2 (100.0%)
50 mg QD, Week 16, Intermediate
  Number of subjects with plasma concentration below LLOQ: 0
50 mg QD, Week 16, Peak
  Number of subjects with plasma concentration below LLOQ: 0
  Plasma concentration, Median: 0.917 ng/mL
50 mg QD, Week 16, Trough
  Number of subjects with plasma concentration below LLOQ: 3 (100.0%)
  Plasma concentration, Median: 0.089 ng/mL
100 mg BID, Week 16, Intermediate
  Number of subjects with plasma concentration below LLOQ: 0
100 mg BID, Week 16, Peak
  Number of subjects with plasma concentration below LLOQ: 0
  Plasma concentration, Median: 1.970 ng/mL
100 mg BID, Week 16, Trough
  Number of subjects with plasma concentration below LLOQ: 1 (100.0%)
  Plasma concentration, Median: 0.451 ng/mL
100 mg QD, Week 12, Intermediate
  Number of subjects with plasma concentration below LLOQ: 1 (33.3%)
100 mg QD, Week 12, Peak
  Number of subjects with plasma concentration below LLOQ: 1 (33.3%)
100 mg QD, Week 12, Trough
  Number of subjects with plasma concentration below LLOQ: 1 (33.3%)
100 mg QD, Week 16, Intermediate
  Number of subjects with plasma concentration below LLOQ: 1 (33.3%)
100 mg QD, Week 16, Peak
  Number of subjects with plasma concentration below LLOQ: 0
  Plasma concentration, Median: 1.165 ng/mL
100 mg QD, Week 16, Trough
  Number of subjects with plasma concentration below LLOQ: 2 (66.7%)
  Plasma concentration, Median: 0.132 ng/mL
Baseline body weight subgroups, through Week 16
  Effect of body weight on systemic exposure: not consistently evident that body weight has a major impact on systemic exposure
Between Week 1 and 16
  Drug accumulation (median trough concentrations): no apparent drug accumulation
human, plasma, oral, 25 mg, 25 mg BID, Week 4, Peak, read-out: Plasma concentration, Geometric Mean
  level at 672 h: 0.539 ng/mL
human, plasma, oral, 25 mg, 25 mg BID, Week 4, Peak, read-out: Plasma concentration, Mean
  level at 672 h: 0.655 ng/mL
human, plasma, oral, 25 mg, 25 mg BID, Week 4, Peak, read-out: Plasma concentration, Median
  level at 672 h: 0.52 ng/mL
human, plasma, oral, 25 mg, 25 mg BID, Week 8, Intermediate, read-out: Plasma concentration, Geometric Mean
  level at 1344 h: 0.092 ng/mL
human, plasma, oral, 25 mg, 25 mg BID, Week 8, Intermediate, read-out: Plasma concentration, Mean
  level at 1344 h: 0.092 ng/mL
human, plasma, oral, 25 mg, 25 mg BID, Week 8, Intermediate, read-out: Plasma concentration, Median
  level at 1344 h: 0.092 ng/mL
human, plasma, oral, 25 mg, 25 mg BID, Week 8, Peak, read-out: Plasma concentration, Geometric Mean
  level at 1344 h: 0.483 ng/mL
human, plasma, oral, 25 mg, 25 mg BID, Week 8, Peak, read-out: Plasma concentration, Mean
  level at 1344 h: 0.672 ng/mL
human, plasma, oral, 25 mg, 25 mg BID, Week 8, Peak, read-out: Plasma concentration, Median
  level at 1344 h: 0.545 ng/mL
human, plasma, oral, 25 mg, 25 mg BID, Week 8, Trough, read-out: Plasma concentration, Geometric Mean
  level at 1344 h: 0.151 ng/mL
human, plasma, oral, 25 mg, 25 mg BID, Week 8, Trough, read-out: Plasma concentration, Mean
  level at 1344 h: 0.184 ng/mL
human, plasma, oral, 25 mg, 25 mg BID, Week 8, Trough, read-out: Plasma concentration, Median
  level at 1344 h: 0.143 ng/mL
human, plasma, oral, 25 mg, 25 mg BID, Week 12, Trough, read-out: Plasma concentration, Mean
  level at 2016 h: 0.202 ng/mL
human, plasma, oral, 25 mg, 25 mg QD, Week 4, Peak, read-out: Plasma concentration, Geometric Mean
  level at 672 h: 0.469 ng/mL
human, plasma, oral, 25 mg, 25 mg QD, Week 4, Peak, read-out: Plasma concentration, Mean
  level at 672 h: 0.591 ng/mL
human, plasma, oral, 25 mg, 25 mg QD, Week 4, Peak, read-out: Plasma concentration, Median
  level at 672 h: 0.425 ng/mL
human, plasma, oral, 25 mg, 25 mg QD, Week 8, Intermediate, read-out: Plasma concentration, Geometric Mean
  level at 1344 h: 0.168 ng/mL
human, plasma, oral, 25 mg, 25 mg QD, Week 8, Intermediate, read-out: Plasma concentration, Mean
  level at 1344 h: 0.211 ng/mL
human, plasma, oral, 25 mg, 25 mg QD, Week 8, Intermediate, read-out: Plasma concentration, Median
  level at 1344 h: 0.177 ng/mL
human, plasma, oral, 25 mg, 25 mg QD, Week 8, Peak, read-out: Plasma concentration, Geometric Mean
  level at 1344 h: 0.284 ng/mL
human, plasma, oral, 25 mg, 25 mg QD, Week 8, Peak, read-out: Plasma concentration, Mean
  level at 1344 h: 0.443 ng/mL
human, plasma, oral, 25 mg, 25 mg QD, Week 8, Peak, read-out: Plasma concentration, Median
  level at 1344 h: 0.325 ng/mL
human, plasma, oral, 25 mg, 25 mg QD, Week 8, Trough, read-out: Plasma concentration, Geometric Mean
  level at 1344 h: 0.061 ng/mL
human, plasma, oral, 25 mg, 25 mg QD, Week 8, Trough, read-out: Plasma concentration, Mean
  level at 1344 h: 0.068 ng/mL
